Data as given in publication PMC7006651, “Effect of 6-Benzoyl-benzothiazol-2-one scaffold on the pharmacological profile of α-alkoxyphenylpropionic acid derived PPAR agonists” (Journal of Enzyme Inhibition and Medicinal Chemistry, 2020).
Like-named read-outs stand apart in the source and are kept apart here.

Assays:
ob/ob mice = assay: In vivo ob/ob mice: glycaemia, triglyceridemia, insulinemia, body weight; details: oral, 4 days, synthesised compounds 8.4 µMkg^−1, references 3 mgkg^−1; for ΔBW (body weight variation between day 0 and day 4): expressed in % of rosiglitazone in the same study (= 100%), ob/ob mice; for Change (%) Gly (glycemia) / Change (%) Ins (insulin) / Change (%) TG (triglycerides): percent change versus control, ob/ob mice at day 4;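 as to all read-outs here: male ob/ob mice aged 10–12 weeks, given the compound once daily by oral gavage as a 1% hydroxyethylcellulose suspension, 8–12 animals per group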
Protocol: The glucose- and triglyceride-lowering activities of the compounds prepared were then tested using 10–12-week-old male ob/ob mice. […] Mice had access to filtered (0.22 mm) tap water ad libitum and irradiated pelleted laboratory chow (transbreed, Special Diet Services, England) throughout the study. Compounds were prepared as a suspension in 1% hydroxyethylcellulose (HEC) for oral administration (10 mLkg^−1). The mice (n = 8–12 per group) were dosed by gavage daily between 15:00 and 17:00 for 4 days. Randomisation was performed based on glycaemia values. The body weight gain (DBW in grams) of the animals was determined by measuring the difference between body weight at the beginning and end of the study for each mouse. At day 5 between 9:00 and 11:00 the mice were weighed, and blood samples were collected into heparin-containing tubes by retro-orbital puncture (500 mL per mouse). […] Plasma samples were prepared by centrifugation (2000 g for 10 min), and stored at −20 °C. For triglycerides and insulin determination, the percent change in plasma level in the treated group was calculated relative to the mean plasma level in the vehicle-treated group. ANOVA, followed by Dunnett’s comparison test (one-tailed) was used to estimate significant differences between the plasma glycaemia, triglycerides, insulin, and DBW values between the control group and the individual compound-treated groups.
As a side effect index, body weight was also measured daily, and body weight variation was calculated as a percentage of the difference in body weight between days 4 and 0.

human PPARγ [1] = molecular target: T1, human PPARγ (Homo sapiens, UniProt P37231); assay: Membrane-bound PPARγ binding assay ([3H]rosiglitazone competition, filtration); details: competition with [3H]rosiglitazone (4 nM), 180 min at 4 °C; read-out: Ki (nM), hPPARγ binding affinity
T1 sequence (P37231 235-505 limits assumed): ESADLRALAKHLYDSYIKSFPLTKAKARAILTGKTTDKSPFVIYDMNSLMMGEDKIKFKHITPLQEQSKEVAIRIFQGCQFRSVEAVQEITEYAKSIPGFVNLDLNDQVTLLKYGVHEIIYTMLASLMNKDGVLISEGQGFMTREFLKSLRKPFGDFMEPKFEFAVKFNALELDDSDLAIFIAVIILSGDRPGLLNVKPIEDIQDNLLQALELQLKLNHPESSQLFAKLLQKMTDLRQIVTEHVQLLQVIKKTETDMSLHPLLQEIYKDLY
Protocol: The membrane-associated PPARγ was used as the biological source as previously described. Binding buffer consisted of 10 mM Tris/HCl, pH 8.2, containing 50 mM KCl and 1 mM dithiothreitol. […] Radioactivity was measured in a TopCount apparatus (Packard).

human PPARγ [2] = molecular target: T2, human PPARγ (Homo sapiens, UniProt P37231); assay: Gene reporter (transactivation) assay, Cos-7 cells transfected with pGal4-hPPARγ; assay type: cell-based; details: for Emax: COS-7, 24 h, read-out: hPPAR gene reporter γGal4 (%); for EC50: GAL4 chimeric hPPARγ, read-out: hPPAR gene reporter γEC50;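 as to all read-outs here: luciferase reporter (pG5-TK) activity normalised to cotransfected β-galactosidase, cells exposed to increasing compound concentrations in DMEM with 0.2% FCS, DMSO vehicle as control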
T2 construct: expressed in transfected cells; host or cells: Cos-7
T2 sequence (P37231 238-503 limits assumed): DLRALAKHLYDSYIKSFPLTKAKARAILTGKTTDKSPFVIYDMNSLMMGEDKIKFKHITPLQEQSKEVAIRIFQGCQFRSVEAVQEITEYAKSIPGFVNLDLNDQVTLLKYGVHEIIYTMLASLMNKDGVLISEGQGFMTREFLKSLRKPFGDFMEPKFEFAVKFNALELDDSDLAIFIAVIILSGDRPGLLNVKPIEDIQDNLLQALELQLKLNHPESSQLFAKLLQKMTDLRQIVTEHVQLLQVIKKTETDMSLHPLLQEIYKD
Protocol: (§1) Cos-7 cells were transiently transfected with luciferase reporter plasmid (pG5-TK-pGL3) in the presence of pGal4-hPPARα or pGal4-hPPARγ (these vectors express chimeric proteins containing the Gal4 DNA-binding domain fused to the human PPARα or PPARγ ligand binding domain coding sequence) expression vector. […] Cells were transfected in OptiMEM without FCS for 3 h at 37°, using polyethylenimine (PEI), with reporter and expression plasmids, as stated in figure’s legend. The plasmid pBluescript (Stratagene, La Jolla, CA) was used as carrier DNA to set the final amount of DNA to 5.5 µg/dish. The pCMV- ß-galactosidase expression plasmid was cotransfected as a control for transfection efficiency. […] After 16 h, cells were trypsinised and seeded in 96-well plates at the density of 2 × 10^4 cells/well and incubated for 6 h in 10% FCS containing DMEM. Cells were then incubated for 24 h in DMEM containing 0.2% FCS and increasing concentrations of the compound tested or vehicle (DMSO). At the end of the experiment, cells were washed once with ice-cold PBS and the luciferase and the β–galactosidase assays were performed as described previously[20]. Cells were incubated 24 h in the presence of indicated concentrations of compound. Luciferase activity was measured and normalised to internal control β-galactosidase activity. […] EC50 were estimated using Prism software (GraphPad). All transfection experiments were performed at least three times.

human PPARα = molecular target: T3, human PPARα (Homo sapiens, UniProt Q07869); assay: Gene reporter (transactivation) assay, Cos-7 cells transfected with pGal4-hPPARα; assay type: cell-based; details: for Emax: COS-7, 24 h, read-out: hPPAR gene reporter αGal4 (%); for Emax / hPPAR gene reporter αGal4 (%): Emax relative to maximum activation with WY14643 (10 µM) = 100%; for EC50: GAL4 chimeric hPPARα, read-out: hPPAR gene reporter αEC50; for EC50 / hPPAR gene reporter αGal4 (%): 24 h;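 as to all read-outs here: luciferase signal from a Gal4-driven reporter normalised to cotransfected β-galactosidase activity, cells exposed to rising compound concentrations with DMSO vehicle as control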
T3 construct: expressed in transfected cells; host or cells: Cos-7
T3 sequence (Q07869 239-466 limits assumed): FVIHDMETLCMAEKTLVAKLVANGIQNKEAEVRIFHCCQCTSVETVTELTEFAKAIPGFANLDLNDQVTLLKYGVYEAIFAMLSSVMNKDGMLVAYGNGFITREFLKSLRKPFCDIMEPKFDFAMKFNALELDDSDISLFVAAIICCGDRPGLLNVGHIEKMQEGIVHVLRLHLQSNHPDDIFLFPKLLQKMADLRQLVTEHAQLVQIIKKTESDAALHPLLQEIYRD
Protocol: as §1

[3] = Emax relative to maximum activation with rosiglitazone (1 μM) = 100%, Cos-7 cells, 24 h

Ki (human PPARγ [1])	melting point	Emax (human PPARγ [2]; [3])	EC50 (human PPARγ [2]; Cos-7 cells, 24 h)	Emax (human PPARα)	EC50 (human PPARα)	hPPAR gene reporter γGal4 (%) (human PPARγ [2]; [3])	hPPAR gene reporter αGal4 (%) (human PPARα)	SMILES	ΔBW (body weight variation between day 0 and day 4) (ob/ob mice)	Change (%) Gly (glycemia) (ob/ob mice)	Change (%) Ins (insulin) (ob/ob mice)	Change (%) TG (triglycerides) (ob/ob mice)	Emax (human PPARγ [2])
165 nM	55 to 56 °C	44%	10 nM	29%	–	–	–	O=C(O)C(Cc1ccc(OCCn2c(=O)sc3cc(C(=NO)c4ccccc4)ccc32)cc1)OCC(F)(F)F (mixture of isomers) [Compound 39b, 3-{4-[2–(6-[(Z/E)-hydroxyimino-phenyl-methyl]-2-oxo-benzothiazol-3-yl)-ethoxy]-phenyl}-2–(2,2,2-trifluoro)ethoxypropionic acid]	75%	−18%	10%	−30%	–
1.3 nM	56 to 57 °C	95%	7 nM	56%	180 nM	–	–	CON=C(c1ccccc1)c1ccc2c(c1)sc(=O)n2CCOc1ccc(CC(OCC(F)(F)F)C(=O)O)cc1 (racemic) [Compound 40b, 3-{4-[2–(6-[(E)-methoxyimino-phenyl-methyl]-2-oxo-benzothiazol-3-yl)-ethoxy]-phenyl}-2–(2,2,2-trifluoro)ethoxypropionic acid]	−70%	−37%	−55%	−54%	–
8 nM	49 to 51 °C	–	61 nM	≥ 80%	256 nM	–	–	CCOC(Cc1ccc(OCCn2c(=O)sc3ccc(C(=O)c4ccccc4)cc32)cc1)C(=O)O (stereo not shown) [Compound 31, 3-{4-[2–(5-benzoyl-2-oxo-benzothiazol-3-yl)-ethoxy]-phenyl}-2-ethoxypropionic acid]	–	–	–	–	–
220 nM	52 to 54 °C	≤ 70%	219 nM	≤ 20%	10000 nM	–	–	CCOC(Cc1ccc(OCCN2C(=O)CSc3ccc(C(=O)c4ccccc4)cc32)cc1)C(=O)O (stereo not shown) [Compound 33, 3-{4-[2–(6-benzoyl-3-oxo-benzo[1, 4]thiazin-4-yl)-ethoxy]-phenyl}-2-ethoxypropionic acid]	–	–	–	–	–
4 nM	58 to 60 °C	97%	37 nM	116%	2050 nM	–	–	CCOC(Cc1ccc(OCCN2C(=O)CSc3cc(C(=O)c4ccccc4)ccc32)cc1)C(=O)O (stereo not shown) [Compound 34, 3-{4-[2–(7-benzoyl-3-oxo-benzo[1, 4]thiazin-4-yl)-ethoxy]-phenyl}-2-ethoxypropionic acid]	–	–	–	–	–
3 nM	47 to 49 °C	> 100%	2 nM	97%	–	–	–	CCOC(Cc1ccc(OCCN2C(=O)COc3ccc(C(=O)c4ccccc4)cc32)cc1)C(=O)O (stereo not shown) [Compound 35, 3-{4-[2–(6-benzoyl-3-oxo-benzo[1, 4]oxazin-4-yl)-ethoxy]-phenyl}-2-ethoxypropionic acid]	–	–	–	–	–
1 nM	36 to 38 °C	> 100%	80 nM	80%	–	–	–	CCOC(Cc1ccc(OCCN2C(=O)COc3cc(C(=O)c4ccccc4)ccc32)cc1)C(=O)O (stereo not shown) [Compound 36, 3-{4-[2–(7-benzoyl-3-oxo-benzo[1, 4]oxazin-4-yl)-ethoxy]-phenyl}-2-ethoxypropionic acid]	–	–	–	–	–
6.5 nM	68 to 70 °C	≤ 75%	40 nM	100%	–	–	–	CCOC(Cc1ccc(OCCN2C(=O)Cc3cc(C(=O)c4ccccc4)ccc32)cc1)C(=O)O (stereo not shown) [Compound 37, 3-{4-[2–(5-benzoyl-2-oxo-2,3-dihydroindol-1-yl)ethoxy]phenyl}-2-ethoxypropionic acid]	–	–	–	–	–
4 nM	–	≤ 75%	5 nM	89%	–	–	–	CCOC(Cc1ccc(OCCN2C(=O)C(F)(F)c3cc(C(=O)c4ccccc4)ccc32)cc1)C(=O)O (stereo not shown) [Compound 38, 3-{4-[2–(5-benzoyl-3,3-difluoro-2-oxo-2,3-dihydroindol-1-yl)ethoxy]phenyl}-2-ethoxy-propionic acid]	–	–	–	–	–
2 nM	84 to 85 °C	91%	24 nM	129%	–	–	–	CCOC(Cc1ccc(OCCn2c(=O)sc3cc(/C(=N/O)c4ccccc4)ccc32)cc1)C(=O)O (stereo not shown) [Compound 39a, 3-{4-[2–(6-[(E)-hydroxyimino-phenyl-methyl]-2-oxo-benzothiazol-3-yl)-ethoxy]-phenyl}-2-ethoxypropionic acid]	−10%	−49%	−34%	−69%	–
4 nM	151 to 152 °C	87%	2 nM	159%	129 nM	–	–	CCOC(Cc1ccc(OCCn2c(=O)sc3cc(/C(=N/OC)c4ccccc4)ccc32)cc1)C(=O)O (stereo not shown) [Compound 40a, 3-{4-[2–(6-[(E)-methoxyimino-phenyl-methyl]-2-oxo-benzothiazol-3-yl)-ethoxy]-phenyl}-2-ethoxypropionic acid]	188%	−58%	−76%	−83%	–
3 nM	–	–	0.9 nM	–	525 nM	150%	59%	CON=C(c1ccccc1)c1ccc2c(c1)sc(=O)n2CCOc1ccc(C[C@H](OCC(F)(F)F)C(=O)O)cc1 [Compound 44b, (S)-3-{4-[2–(6-[(E)-methoxyimino-phenyl-methyl]-2-oxo-benzothiazol-3-yl)-ethoxy]-phenyl}-2–(2,2,2-trifluoro)ethoxypropionic acid]	−17%	−36%	−89%	−69%	–
86 nM	151 to 152 °C	87%	558 nM	124%	1480 nM	–	–	CCO[C@H](Cc1ccc(OCCn2c(=O)sc3cc(/C(=N/OC)c4ccccc4)ccc32)cc1)C(=O)O [Compound 46a, (R)-3-{4-[2–(6-[(E)-methoxyimino-phenyl-methyl]-2-oxo-benzothiazol-3-yl)-ethoxy]-phenyl}-2-ethoxypropionic acid]	–	–	–	–	–
33 nM	–	–	9 nM	–	1660 nM	116%	117%	CON=C(c1ccccc1)c1ccc2c(c1)sc(=O)n2CCOc1ccc(C[C@@H](OCC(F)(F)F)C(=O)O)cc1 [Compound 46b, (R)-3-{4-[2–(6-[(E)-methoxyimino-phenyl-methyl]-2-oxo-benzothiazol-3-yl)-ethoxy]-phenyl}-2–(2,2,2-trifluoro)ethoxypropionic acid]	–	–	–	–	–
–	–	–	–	–	–	–	100%	Cc1cccc(Nc2cc(Cl)nc(SCC(=O)O)n2)c1C [WY14643, reference compound]	–	–	–	–	–
–	–	–	–	–	–	–	–	CN(CCOc1ccc(CC2SC(=O)NC2=O)cc1)c1ccccn1 (stereo not shown) [rosi, Rosiglitazone, reference compound]	100%	−57%	−73%	−46%	–

SMILES	Ki (human PPARγ [1])	melting point	Emax (human PPARγ [2]; [3])	EC50 (human PPARγ [2]; Cos-7 cells, 24 h)	Emax (human PPARα)	EC50 (human PPARα)	hPPAR gene reporter γGal4 (%) (human PPARγ [2]; [3])	hPPAR gene reporter αGal4 (%) (human PPARα)	ΔBW (body weight variation between day 0 and day 4) (ob/ob mice)	Change (%) Gly (glycemia) (ob/ob mice)	Change (%) Ins (insulin) (ob/ob mice)	Change (%) TG (triglycerides) (ob/ob mice)	Emax (human PPARγ [2])
COc1ccc(OC(=O)N(CC(=O)O)Cc2ccc(OCCc3nc(-c4ccccc4)oc3C)cc2)cc1 [mura, Muraglitazar, reference compound]	–	–	–	–	84%	595 nM	–	–	206%	−46%	−46%	−34%	128%
